Laboratory results as given in article PMC5845353, “The selective cathepsin K inhibitor MIV-711 attenuates joint pathology in experimental animal models of osteoarthritis” (Journal of Translational Medicine, 2018).

Tested on: cartilage degradation biomarker CTX-II
Assay: Urinary CTX-II (cartilage degradation biomarker) in ACLT rabbits
Format: in vivo, rabbit
Method: Starting 1 week after sham operation or ACLT, animals were dosed daily for 7 weeks by oral gavage with either MIV-711 (synthesized by Medivir and given as a suspension in 1% Methocel A4C in water) or vehicle (1% Methocel A4C in water) at a dose volume of 4 mL/kg. The four treatment groups (n = 7 in each group) were: (1) sham + vehicle; (2) ACLT + vehicle; (3) ACLT + MIV-711, 30 µmol/kg (low dose) and (4) ACLT + MIV-711, 100 µmol/kg (high dose).
Urine was collected in the morning from all animals for biomarker measurements before surgery, before dosing on Day 1, Day 10 and during Week 4 and Week 7. The urine was stored frozen (− 70 to − 80 °C) until analysis.
In rabbits, conventional CTX-I assays to assess bone resorption cannot be used due to species differences. Instead, urinary helical peptide (HP-1) concentrations were measured in rabbits using the MicroVue Helical Peptide kit (Ref: 8022) from Quidel (San Diego, CA) according to the instructions supplied by the manufacturer. In dogs, urinary levels of C-terminal telopeptide of collagen type I (CTX-I) were measured using a commercially available kit (Urine BETA CrossLaps ELISA, Ref: AC-05F1, IDS Nordic Bioscience Diagnostics A/S). In rabbits and dogs, urinary concentrations of C-terminal telopeptide of collagen type II (CTX-II) were measured using the Urine CartiLaps EIA kit (Ref: AC-10F1) from Immunodiagnostics Systems (IDS, Herlev, Denmark) according to the instructions supplied by the manufacturer. In dogs, CTX-II levels were also measured in synovial fluid. Before ELISA analysis, 95 µL of synovial fluid was mixed with 5 µL of hyaluronidase (100 U/mL, Sigma, H-3884). The mixture was incubated overnight at 35 °C. The mixture was then used to measure CTX-II levels (Serum Pre-Clinical CartiLaps ELISA, Ref: AC-08F1, IDS Nordic Bioscience Diagnostics A/S). The creatinine levels in urine were determined at Swedish University of Agricultural Sciences (Uppsala, Sweden), using the enzymatic assay (Cat No. 8L24-01) on the Abbott system Architect c4000.

C#C[C@@H]1CN(C(=O)[C@H](CC(C)C)NC(=O)c2ccc(-c3nc(N4CCN(C)CC4)sc3F)cc2)[C@@H]2C(=O)CO[C@H]12 [MIV-711]
CTX-II levels decreased by up to, vs ACLT vehicle controls (ACLT rabbits, over doses 30 and 100 µmol/kg and time points): up to 74%
urinary CTX-II levels reduced by, vs ACLT rabbits treated with vehicle (after 4 weeks, 30 µmol/kg (p > 0.05)): 38%
urinary CTX-II levels reduced by, vs ACLT rabbits treated with vehicle (after 4 weeks, 100 µmol/kg): 49%
urinary CTX-II levels reduced by, vs ACLT rabbits treated with vehicle (after 7 weeks, 30 µmol/kg (p > 0.05)): 14%
urinary CTX-II levels reduced by, vs ACLT rabbits treated with vehicle (after 7 weeks, 100 µmol/kg): 52%
urinary CTX-II levels reduced by, vs ACLT rabbits treated with vehicle (after 10 days of dosing, 30 µmol/kg): 53%
urinary CTX-II levels reduced by, vs ACLT rabbits treated with vehicle (after 10 days of dosing, 100 µmol/kg): 74%
